For eight molecules, Ki results are on record in paper PMC8956313, “Biological investigation of N-methyl thiosemicarbazones as antimicrobial agents and bacterial carbonic anhydrases inhibitors” (Journal of Enzyme Inhibition and Medicinal Chemistry, 2022).

What is called Ki is the dissociation constant of the complex between target and ligand, obtained from inhibition or displacement.

Structures are written as SMILES.

Holding throughout (assay): stopped-flow CO2 hydrase assay
Holding throughout (assay type): biochemical

In one assay the target is T1, hCA I (Homo sapiens, UniProt P00915).
T1 construct: gene CA1; recombinant, obtained in house
T1 sequence (P00915 2-261): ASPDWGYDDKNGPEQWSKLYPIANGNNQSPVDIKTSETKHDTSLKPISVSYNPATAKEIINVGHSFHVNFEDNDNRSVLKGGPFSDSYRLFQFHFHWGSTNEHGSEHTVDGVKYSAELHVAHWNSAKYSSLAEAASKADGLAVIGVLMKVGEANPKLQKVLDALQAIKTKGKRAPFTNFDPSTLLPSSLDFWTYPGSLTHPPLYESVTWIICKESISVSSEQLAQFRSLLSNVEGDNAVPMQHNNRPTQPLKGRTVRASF

Another assay addresses T2, EcoβCA (Escherichia coli, UniProt P61517).
T2 construct: gene can; recombinant, expressed in E. coli (DE3), purified

A further assay has as its target T3, hCA II (Homo sapiens, UniProt P00918).
T3 construct: gene CA2; recombinant, obtained in house

The target of the next assay is T4, EcoγCA (Escherichia coli, UniProt P0A9W9).
T4 construct: gene yrdA; recombinant, expressed in E. coli (DE3), purified
T4 sequence (P0A9W9 1-184): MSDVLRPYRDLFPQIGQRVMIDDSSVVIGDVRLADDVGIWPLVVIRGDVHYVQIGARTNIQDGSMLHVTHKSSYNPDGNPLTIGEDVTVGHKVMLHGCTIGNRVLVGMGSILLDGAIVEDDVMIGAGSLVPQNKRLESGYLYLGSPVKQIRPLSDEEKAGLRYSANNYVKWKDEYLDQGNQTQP

The next assay has as its target T5, psCA3-β (Pseudomonas aeruginosa, UniProt Q9HVB9).
T5 construct: gene PA4676; recombinant, expressed in E. coli (DE3), purified
T5 sequence (Q9HVB9 1-215): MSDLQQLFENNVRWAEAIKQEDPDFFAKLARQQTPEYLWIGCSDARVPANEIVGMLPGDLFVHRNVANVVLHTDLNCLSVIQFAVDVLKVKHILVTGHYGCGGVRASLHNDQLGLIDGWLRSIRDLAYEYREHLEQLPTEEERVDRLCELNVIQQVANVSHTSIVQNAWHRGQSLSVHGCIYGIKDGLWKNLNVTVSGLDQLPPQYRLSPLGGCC

Another assay has as its target T6, HpαCA (Helicobacter pylori, UniProt O25798).
T6 construct: gene HP_1186; recombinant, expressed in E. coli (DE3), purified
T6 sequence (O25798 19-202): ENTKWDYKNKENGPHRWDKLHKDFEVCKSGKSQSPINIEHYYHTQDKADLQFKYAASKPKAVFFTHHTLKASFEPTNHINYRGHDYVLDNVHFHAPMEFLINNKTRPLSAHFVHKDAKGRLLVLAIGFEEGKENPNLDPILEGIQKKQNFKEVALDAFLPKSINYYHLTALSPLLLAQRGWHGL
Conditions: HEPES pH 7.40, 20 mM Na2SO4, 15 min preincubation, room temperature.

Another assay has as its target T7, HpβCA (Helicobacter pylori, UniProt O24855).
T7 construct: gene cynT; recombinant, expressed in E. coli (DE3), purified
T7 sequence (O24855 1-221): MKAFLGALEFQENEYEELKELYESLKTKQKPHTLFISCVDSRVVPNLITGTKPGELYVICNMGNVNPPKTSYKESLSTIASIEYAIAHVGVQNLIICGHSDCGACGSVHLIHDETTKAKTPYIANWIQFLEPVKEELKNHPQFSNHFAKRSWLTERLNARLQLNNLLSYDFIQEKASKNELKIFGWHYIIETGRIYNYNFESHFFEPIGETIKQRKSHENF

T2 sequence (P61517 whole entry): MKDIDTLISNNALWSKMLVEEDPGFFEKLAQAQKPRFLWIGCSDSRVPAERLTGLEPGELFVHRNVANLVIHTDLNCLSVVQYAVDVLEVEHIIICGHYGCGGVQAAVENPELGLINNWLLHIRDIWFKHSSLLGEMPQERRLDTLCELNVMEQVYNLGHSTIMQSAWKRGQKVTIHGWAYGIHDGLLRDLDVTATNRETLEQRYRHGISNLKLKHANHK

Turning to `CNC(=S)NN=C(C)c1ccc2c(c1)OCCO2` [compound 7, TSC 7], the figures for the Ki at hCA I and on EcoβCA were more than 1000 µM and 96.5 µM, respectively.
For the molecule `CNC(=S)NN=C(C)c1ccc(Br)s1` [compound 9, TSC 9], the inhibition constant Ki was more than 800 µM at hCA II, 83.2 µM on EcoγCA and 86.7 µM at psCA3-β.
Taken in the same sequence, the figures for `CNC(=S)NN=C(C)c1ccc(OC)cc1` [compound 1, TSC 1] were more than 800 µM, 86.2 µM and 92.1 µM.
For `CNC(=S)NN=C(C)c1ccc2c(c1)OCO2` [compound 6, TSC 6], the inhibition constant Ki at hCA I was more than 1000 µM.
On the same count and under the same terms, the result for `CNC(=S)NN=C(C)c1ccc(-n2ccnc2)cc1` [compound 4, TSC 4] reads more than 1000 µM.
Regarding `CNC(=S)NN=C(C)c1ccc(-c2cc3ccccc3[nH]2)cc1` [compound 5, TSC 5], the Ki on HpαCA amounted to 95.2 µM; on HpβCA, 348 µM.
Turning to `CNC(=S)NN=C(C)c1ccc(N2CCOCC2)cc1` [compound 3, TSC 3], the inhibitory constant (Ki) is more than 800 µM on hCA II and 91.5 µM on EcoβCA.
Regarding `CNC(=S)NN=C(C)c1ccc(S(C)(=O)=O)cc1` [compound 2, TSC 2], the inhibition constant (Ki) on hCA II was more than 800 µM; on EcoγCA it was 80 µM; on psCA3-β it was 93.4 µM.
